Patent publication US9226928B2, “Spirocyclic isoxazoline parasiticidal combinations” (Zoetis Services LLC, priority 2012, dated 2016)

Tested on: Haemonchus contortus L3 resistant strain
Assay: In vitro motility assay, H. contortus L3 resistant strain
Format: cell-based
Details: 96 hours; for H. contortus L3 resistant MED: minimum efficacious dose, visual motility assessment; for % Motility: vs untreated control, LemnaTec, moxidectin 0.3 μM, pyrantel 10 μM, Compound A 100 μM, alone or combined

Question: Which “H. contortus L3 resistant MED” value does the source give for `CS(=O)(=O)CC(=O)N1CC2(C1)OCc1cc(C3=NO[C@@](c4cc(Cl)c(F)c(Cl)c4)(C(F)(F)F)C3)ccc12` [Compound A, (S)-1-(5′-(5-(3,5-dichloro-4-fluorophenyl)-5-(trifluoromethyl)-4,5-dihydroisoxazol-3-yl)-3′H-spiro[azetidine-3,1′-isobenzofuran]-1-yl)-2-(methylsulfonyl)ethanone] here?
Answer: Its value is >100 µM.

Question: And the “% Motility” value?
Answer: The value was 69.0%.

Question: Which results are given for `CN1CCCN=C1/C=C/c1cccs1` [Pyrantel, pyrantel pamoate]?
Answer: H. contortus L3 resistant MED: 33 µM; % Motility: 80.0%

Question: For `CO/N=C1\C[C@]2(C[C@@H]3C[C@@H](C/C=C(\C)C[C@@H](C)/C=C/C=C4\CO[C@@H]5[C@H](O)C(C)=C[C@@H](C(=O)O3)[C@]45O)O2)O[C@H](/C(C)=C/C(C)C)[C@H]1C` [Moxidectin, moxidectin], which “H. contortus L3 resistant MED” value is on record?
Answer: Its value is 1 µM.

Question: What about the “% Motility” value of the same compound?
Answer: Its value is 64.3%.
